Data on twelve compounds can be found in ChEMBL document CHEMBL1137483, “Novel chalcones as probes for in vivo imaging of beta-amyloid plaques in Alzheimer's brains” (Bioorg Med Chem, 2007).

Series [1] is described as follows: Displacement of [125I](E)-3-(4-(Dimethylamino-phenyl)-1-(4-iodophenyl)prop-2-en-1-one from beta amyloid(1-42) aggregates. The arrangement: species or system Homo sapiens. For orientation: In a radioligand displacement assay an active substance lowers the binding of a labelled ligand.
For series [2], the system named is Brain. As to the kind of experiment: Biodistribution in ddY mouse brain at 0.2 to 0.3 uCi, iv after 30 mins. The class given is ADME, organism-based. Conditions: in vivo, 0.5 h.
Series [3] has as its system Intestine. Briefly: Biodistribution in ddY mouse intestine at 0.2 to 0.3 uCi, iv after 2 mins. The class given is ADME, organism-based. Conditions: in vivo.
For series [4], the system named is Stomach. Briefly: Biodistribution in ddY mouse stomach after 30 mins. Conditions: in vivo, 0.5 h. The series is classed as ADME, organism-based.
For series [5], the system named is Spleen. As to the kind of experiment: Biodistribution in ddY mouse spleen at 0.2 to 0.3 uCi, iv after 2 mins. The class given is ADME, organism-based. As to conditions: in vivo.
The subject of series [6] is Blood. Briefly: Biodistribution in ddY mouse blood at 0.2 to 0.3 uCi, iv after 30 mins. Conditions: in vivo, 0.5 h. The class given is ADME, organism-based.
The subject of series [7] is Heart. As to the kind of experiment: Biodistribution in ddY mouse heart at 0.2 to 0.3 uCi, iv after 30 mins. The class given is ADME, organism-based. As to conditions: in vivo, 0.5 h.
For series [8], the system named is Spleen. Briefly: Biodistribution in ddY mouse spleen assessed as at 0.2 to 0.3 uCi, iv after 30 mins. The series is classed as ADME, organism-based. Conditions: in vivo, 0.5 h.
Series [9] has as its system Intestine. As to the kind of experiment: Biodistribution in ddY mouse intestine at 0.2 to 0.3 uCi, iv after 30 mins. The class given is ADME, organism-based. Conditions: in vivo, 0.5 h.
In series [10] the test system is Lung. As to the kind of experiment: Biodistribution in ddY mouse lung at 0.2 to 0.3 uCi, iv after 2 mins. The class given is ADME, organism-based. As to conditions: in vivo.
In series [11] the test system is Lung. As to the kind of experiment: Biodistribution in ddY mouse lung at 0.2 to 0.3 uCi, iv after 30 mins. The class given is ADME, organism-based. Conditions: in vivo, 0.5 h.
The test system of series [12] is Heart. Briefly: Biodistribution in ddY mouse heart at 0.2 to 0.3 uCi, iv after 2 mins. Conditions: in vivo. The series is classed as ADME, organism-based.
Series [13] deals with Kidney. As to the kind of experiment: Biodistribution in ddY mouse kidney at 0.2 to 0.3 uCi, iv after 30 mins. The series is classed as ADME, organism-based. As to conditions: in vivo, 0.5 h.
Series [14] relates to Blood. As to the kind of experiment: Biodistribution in ddY mouse blood at 0.2 to 0.3 uCi, iv after 2 mins. Conditions: in vivo. The series is classed as ADME, organism-based.
Series [15] concerns Kidney. As to the kind of experiment: Biodistribution in ddY mouse kidney at 0.2 to 0.3 uCi, iv after 2 mins. The series is classed as ADME, organism-based. As to conditions: in vivo.
The subject of series [16] is Liver. As to the kind of experiment: Biodistribution in ddY mouse liver at 0.2 to 0.3 uCi, iv after 2 mins. The class given is ADME, organism-based. As to conditions: in vivo.
The subject of series [17] is Brain. As to the kind of experiment: Biodistribution in ddY mouse brain at 0.2 to 0.3 uCi, iv after 2 mins. The series is classed as ADME, organism-based. Conditions: in vivo.
In series [18] the test system is Stomach. As to the kind of experiment: Biodistribution in ddY mouse stomach at 0.2 to 0.3 uCi, iv after 2 mins. The series is classed as ADME, organism-based. As to conditions: in vivo.
Series [19] has as its system Liver. As to the kind of experiment: Biodistribution in ddY mouse liver at 0.2 to 0.3 uCi, iv after 30 mins. As to conditions: in vivo, 0.5 h. The series is classed as ADME, organism-based.

The term Ki denotes the dissociation constant of the complex between target and ligand, obtained from inhibition or displacement.

Consider `O=C(/C=C/c1ccc(O)cc1)c1ccc(I)cc1`, for which the affinity in series [1], expressed as Ki, was 21.4 nM.
As to `CN(C)c1ccc(/C=C/C(=O)c2ccc([125I])cc2)cc1`, the Drug uptake with Brain [2] was found to be 0.49 % ID/g; in the series with Intestine [3], 1.31 % ID/g; in the series with Stomach [4], 2.45 %ID; in the series with Spleen [5], 1.37 % ID/g; in the series on Blood [6], 1.4 % ID/g; in the series on Heart [7], 1.18 % ID/g. Also, the Drug uptake in the series with Spleen [8] is listed as 0.6 % ID/g; in the series with Intestine [9], 10.38 % ID/g; in the series with Lung [10], 3.4 % ID/g; with Lung [11], 1.84 % ID/g; in the series with Heart [12] it was 3.92 % ID/g; in the series with Kidney [13] it was 11.62 % ID/g. In addition, the Drug uptake in the series on Blood [14] is recorded as 1.85 % ID/g; with Kidney [15] it was 5.32 % ID/g; in the series on Liver [16], 10.02 % ID/g; in the series with Brain [17], 2.04 % ID/g; in the series on Stomach [18] it was 0.96 %ID; with Liver [19] it was 11.04 % ID/g.
For `COc1ccc(/C=C/C(=O)c2ccc([125I])cc2)cc1`, the Drug uptake was found to be 0.22 % ID/g in the series on Brain [2]; 1.93 % ID/g with Intestine [3]; 2.11 %ID in the series with Stomach [4]; 1.38 % ID/g with Spleen [5]; 0.46 % ID/g with Blood [6]; 0.63 % ID/g in the series on Heart [7]. The Drug uptake with Spleen [8] amounted to 0.29 % ID/g; with Intestine [9], 10.19 % ID/g; in the series on Lung [10] it was 3.81 % ID/g; with Lung [11], 0.79 % ID/g; in the series with Heart [12] it was 3.74 % ID/g; in the series with Kidney [13], 3.27 % ID/g. In addition, the Drug uptake was determined as 1.34 % ID/g in the series on Blood [14]; 4.61 % ID/g in the series on Kidney [15]; 5.97 % ID/g with Liver [16]; 2.45 % ID/g in the series on Brain [17]; 0.9 %ID in the series with Stomach [18]; 4.03 % ID/g in the series on Liver [19].
Consider `O=C(/C=C/c1ccc(O)cc1)c1ccc([125I])cc1`, for which the Drug uptake was 0.4 % ID/g with Brain [2]; 1.87 % ID/g with Intestine [3]; 2.16 %ID in the series on Stomach [4]; 3.56 % ID/g in the series with Spleen [5]; 0.57 % ID/g with Blood [6]; 0.49 % ID/g with Heart [7]. For the same compound, the Drug uptake with Spleen [8] turned out to be 1.04 % ID/g; with Intestine [9] it was 12.94 % ID/g; in the series on Lung [10], 10.04 % ID/g; in the series with Lung [11], 1.04 % ID/g; in the series on Heart [12], 5.92 % ID/g; with Kidney [13], 3.51 % ID/g. Besides, the Drug uptake with Blood [14] worked out at 1.89 % ID/g; in the series on Kidney [15], 9.3 % ID/g; with Liver [16], 8.39 % ID/g; in the series with Brain [17], 3.57 % ID/g; in the series on Stomach [18] it was 1.22 %ID; in the series on Liver [19], 6.64 % ID/g.
As for `COc1ccc(/C=C/C(=O)c2ccc(I)cc2)cc1`, the Ki in [1] was found to be 6.3 nM.
In turn, `CN(C)c1ccc(/C=C/C(=O)c2ccc(I)cc2)cc1` registered a Ki in [1] of 2.9 nM.
In the case of `Nc1ccc(/C=C/C(=O)c2ccc([125I])cc2)cc1`, the Drug uptake with Brain [2] was 0.46 % ID/g; in the series on Intestine [3], 1.84 % ID/g; in the series with Stomach [4], 1.58 %ID; in the series on Spleen [5] it was 1.53 % ID/g; with Blood [6] it was 1.46 % ID/g; with Heart [7] it was 0.84 % ID/g. The Drug uptake with Spleen [8] is listed as 0.6 % ID/g; with Intestine [9] it was 11.27 % ID/g; in the series with Lung [10], 4.74 % ID/g; in the series on Lung [11] it was 1.43 % ID/g; in the series with Heart [12], 4.59 % ID/g; in the series on Kidney [13] it was 6.34 % ID/g. Further, the Drug uptake amounted to 3.62 % ID/g in the series on Blood [14]; 6.96 % ID/g in the series on Kidney [15]; 7.52 % ID/g with Liver [16]; 4.49 % ID/g in the series with Brain [17]; 0.87 %ID in the series with Stomach [18]; 8.16 % ID/g in the series on Liver [19].
Regarding `Nc1ccc(/C=C/C(=O)c2ccc(I)cc2)cc1`, the inhibition constant Ki in [1] was found to be 105 nM.
The same measure, in the same setting: in the case of `CNc1ccc(/C=C/C(=O)c2ccc(I)cc2)cc1` it was 6.3 nM.
For the compound `CNc1ccc(/C=C/C(=O)c2ccc([125I])cc2)cc1`, the Drug uptake in the series with Brain [2] is 0.61 % ID/g; in the series with Intestine [3], 2.06 % ID/g; with Stomach [4], 1.28 %ID; in the series on Spleen [5] it was 2.85 % ID/g; in the series on Blood [6], 1.47 % ID/g; with Heart [7] it was 1.08 % ID/g. Besides, the Drug uptake with Spleen [8] is given as 0.8 % ID/g; in the series with Intestine [9], 10.46 % ID/g; with Lung [10] it was 8.3 % ID/g; with Lung [11] it was 4.01 % ID/g; in the series with Heart [12], 4.72 % ID/g; in the series on Kidney [13], 11.43 % ID/g. Further, the Drug uptake worked out at 1.64 % ID/g with Blood [14]; 6.62 % ID/g in the series on Kidney [15]; 7.2 % ID/g in the series on Liver [16]; 4.72 % ID/g with Brain [17]; 1.02 %ID with Stomach [18]; 8.61 % ID/g in the series on Liver [19].
As to `Nc1c(/N=N/c2ccc(-c3ccc(/N=N/c4cc(S(=O)(=O)O)c5ccccc5c4N)cc3)cc2)cc(S(=O)(=O)O)c2ccccc12` [CONGO RED], in series [1], the Ki was greater than 10000 nM.
The same measure, in the same setting: the same measure for `Cc1ccc2c(c1)sc(-c1ccc(N(C)C)cc1)[n+]2C` [THIOFLAVIN T]: greater than 10000 nM.
